US20110224221A1, “HEMATOPOIETIC PROTECTION AGAINST IONIZING RADIATION USING SELECTIVE CYCLIN-DEPENDENT KINASE 4/6 INHIBITORS” (priority 2008, published 2011)

Assays:
[1] = tested on: telomerized human diploid fibroblasts (tHDF); experiment: Cell cycle analysis (BrdU incorporation in vitro), tHDF; type: cell-based; details: 24 hours exposure
Excerpt: FIG. 3A is a set of graphs showing the dose-response curves for cycle analysis in both cyclin-dependent kinase 4/6 (CKD4/6)-dependent cells (human telomerized human diploid fibroblasts (tHDFs, left-hand column of graphs) and a CDK4/6-dependent human melanoma cell line (WM2664, middle column of graphs)) and in CDK4/6-independent cells (a human retinoblastoma tumor suppressor protein (RB)-null melanoma cell line (A2058), right-hand column of graphs). […] The percentage of cells in the G1 phase is indicated by the data shown in the open triangles, while the percentage of cells in the S phase is shown by the data in the shaded circles and the percentage of cells in the G2/M phase is indicated by the data in the double “x”s.
Cell Lines: KPTR1, KPTR4. and KPTR5 were derived from tumor-bearing TyrRAS+Ink4a/Arf−/− by standard procedures and cultured in RPMI+10% fetal bovine serum (FBS). Telomerized HDFs (tHDFs, also known as HS68) were cultured in DMEM+10% FBS with penicillin and streptomycin. The same conditions were used for A2058 and WM2664, human melanoma cell lines with known RB-pathway mutations: A2058 is RB-null, whereas WM2664 lacks p16^INK4a/Arf. See Shields, et al., Cancer Res., 67, 1502-1512 (2007). Cells were irradiated for indicated doses in a Rad Source Inc. (Alpharetta, Ga., United States of America) RS-2000 Biological Irradiator at 160 kV, 25.0 mA, at distance setting 1, with a dose rate of 103 rads/min.
(§1) BrdU Incorporation in vitro: Cells were plated and allowed to adhere overnight or at least 6 hours prior to adding CDK4/6 inhibitor at the indicated concentrations. Cells were grown for 24 hours in the presence of CDK4/6 inhibitor. 15 minutes prior to cell harvesting, 5-Bromo-2-deoxyuridine (BrdU) was added to the media at a final concentration of 10 μM. The cells were then washed, trypsinized, pelleted, fixed, permeabilized, stained, and measured on a flow cytometer as described in manufacturer directions for the BrdU Kit (BD Biosciences Pharmingen, San Diego, Calif., United States of America).
The proliferation of seven RB-deficient human small cell lung cancer lines was also resistant to the selective CDK4/6 inhibitors.

[2] = tested on: peripheral blood lineages; experiment: Peripheral blood counts after TBI; type: in vivo, mice; details: for bone marrow protection: after IR; for protection/recovery of peripheral blood lineages: platelets, erythrocytes, myeloid cells, lymphocytes after IR
Experimental: For comparison, data from mice that had not been exposed to IR is also shown (lightly shaded bars). […] Error bars show standard error of the mean.
Data was prepared from weekly complete blood counts on tail vein bleeds. Asterisk(s) indicate statistical significance determined by a 2-sided t-test. Error bars are +/− the standard error of the mean.
For TBI experiments, mice were irradiated using a ^137Cs source (AECL Gammacell 40 Irradiator, Atomic Energy of Canada Ltd, Mississauga, Ontario, Canada). Delivered doses were at or near the empirically determined LD90 of 7.5 Gy, consistent with prior studies. See Na Nakorn et al., J. Clin. Invest., 109, 1579-1585 (2002); Herodin et al., Blood, 101, 2609-2616 (2003); Uckun et al., Blood, 75, 638-645 (1990); and Wang et al., Proc. Natl. Acad. Sci., USA, 94, 14590-14595 (1997). Peripheral blood was collected using a tail vein nick for complete blood cells (CBCs) and analyzed with a HemaTrue analyzer (Heska Co., Loveland, Colo., United States of America).
The peripheral blood of animals after IR exposure was studied to confirm that the improved survival was due to protection of hematopoietic lineages.

[3] = tested on: RB-null melanoma cell line A2058; experiment: Clonogenic assay after IR, A2058; type: cell-based, human; details: 100 nM, IR 0-9 Gy
Experimental: Data plotted is the area/cell ratio of PD0332991 treated cells to dimethyl sulfoxide (DMSO) treated cells. Error bars show standard error of the mean.
Clonogenic Assay: The clonogenic assay was performed as previously described (see Franken et al., Nature protocols, 1, 2315-1319 (2006)) with cells plated in a six-well plate at least 6 hours prior to treatment with CDK inhibitor for 24 hours, […] Cells were grown for 16 days, washed, fixed, and stained with crystal violet. Plates were then imaged using an Odyssey infrared scanner (Li-Cor Biosciences, Lincoln, Nebr., United States of America) and quantified using the accompanying software.

[4] = tested on: KPTR1, KPTR4 and KPTR5 melanoma cell lines; experiment: Cell cycle analysis (BrdU incorporation in vitro) in murine melanoma cell lines; type: cell-based; details: 24 hours treatment
Excerpt: FIG. 2C is a set of graphs showing the dose-response curves for cell cycle analysis in murine (KPTR1, KPTR4 and KPTR5 from TyrRAS+Ink4a/Arf−/−mice) melanoma cell lines. […] The percentage of cells in the G1 phase is indicated by the data shown in the closed squares. The percentage of cells in the S phase is shown by the data in the open triangles. The percentage of cells in the G2/M phase is indicated by the data in the open circles. The percentage of cells actively proliferating as marked by Ki67 positive staining is shown in closed diamonds. Error bars are +/− the standard error of the mean (SEM).
Cell Lines: KPTR1, KPTR4. and KPTR5 were derived from tumor-bearing TyrRAS+Ink4a/Arf−/− by standard procedures and cultured in RPMI+10% fetal bovine serum (FBS). Telomerized HDFs (tHDFs, also known as HS68) were cultured in DMEM+10% FBS with penicillin and streptomycin. […]
as §1, with “Cells were grown for 24 hours in the presence of CDK4/6 inhibitor. 15 minutes prior to cell harvesting, 5-Bromo-2-deoxyuridine (BrdU) was added to the media at a final concentration of 10 μM.” left out

[5] = tested on: mice exposed to total body irradiation
Excerpt: FIG. 16 is set of bar graphs showing the hematocrit or cell counts of different lineages of blood cells from mice 143-242 days following exposure to a lethal dose (7.5 gray (Gy)) or sub-lethal dose (6.5 Gy) of total body irradiation (TBI). Data for mice treated with 6-acetyl-8-cyclopentyl-5-methyl-2-(5-piperazin-1-yl-pyridin-2-ylamino)-8H-pyrido-[2,3-d]pyrimidin-7-one (PD 0332991) prior to 6.5 Gy TBI is shown in the solid bars and data for mice treated with PD 0332991 prior to 7.5 Gy TBI is shown in the stippled bars. […] Myeloid cell count is the sum of granulocytes and monocytes.

**Q.** What does the source list for `O=C1NC(=O)c2c1c1c3ccccc3[nH]c1c1[nH]c3cc(Br)ccc3c21` [Compound 2BrIC, 2-bromo-12,13-dihydro-5H-indolo[2,3-a]pyrrolo[3,4]-carbazole-5,6-dione]?
**A.** cell cycle effect [1]: strong, reversible G1-arrest; bone marrow protection [2]: marked bone marrow protection

**Q.** Which “clonogenic cell survival after IR (area/cell ratio relative to DMSO)” value [3] does the source give for `CC(=O)c1c(C)c2cnc(Nc3ccc(N4CCNCC4)cn3)nc2n(C2CCCC2)c1=O` [PD0332991, 6-acetyl-8-cyclopentyl-5-methyl-2-(5-piperazin-1-yl-pyridin-2-ylamino)-8H-pyrido-[2,3-d]-pyrimidin-7-one] here?
**A.** not in CDK4/6-independent cells

**Q.** What about the cell cycle effect [1] of the same compound?
**A.** strong, reversible G1-arrest

**Q.** What about the “sensitivity of derivative tumor cell lines in vitro” value [4] of the same compound?
**A.** insensitive

**Q.** What about the bone marrow protection [2] of the same compound?
**A.** marked bone marrow protection

**Q.** And the anemia and thrombocytopenia ([2]; lethally irradiated mice (7.5 Gy))?
**A.** significantly ameliorated

**Q.** And the “protection/recovery of peripheral blood lineages” value [2]?
**A.** beneficial effect on the recovery of all peripheral blood lineages

**Q.** And the “protection/recovery of peripheral blood lineages” value ([2]; listed as PD 0332991)?
**A.** protects all lineages of blood cells

**Q.** What about the “blood count nadirs and recovery” value ([2]; sub-lethal dose of TBI (6.5 Gy)) of the same compound?
**A.** diminished count nadirs and caused more rapid count recovery

**Q.** What about the deaths ([5]; 6.5 Gy TBI, followed 210-274 days post-TBI) of the same compound?
**A.** no deaths

**Q.** What about the “deaths among 29 mice surviving acute toxicity” value ([5]; 7.5 Gy TBI, remaining mice disease free 101-251 days post-TBI) of the same compound?
**A.** one death of unknown cause at day 99

**Q.** What about the “blood counts on long-term surviving animals vs unirradiated” value ([5]; long-term after TBI) of the same compound?
**A.** comparable

**Q.** What about the “myeloproliferative disorder or myelodysplasia” value ([5]; mouse, in vivo) of the same compound?
**A.** No evidence
